Experiments:
Puccinia triticina = assay: Wheat brown rust (PUCCRT) disease control on wheat seedlings; type: in vivo; set-up: key to PUCCRT 3DC, HV activity at 100 ppm (% control rating) / PUCCRT disease control, 3DC / PUCCRT 1DP disease control rating, HV activity / PUCCRT 3DC disease control rating, HV activity / PUCCRT 3DC, LV activity at 125.1 g/H (% Control rating) / PUCCRT 1DP, LV activity at 125.1 g/H (% Control rating) / PUCCRT 3DC disease control rating, LV activity at 125.1 g/H / PUCCRT 1DP disease control rating, LV activity at 125.1 g/H / PUCCRT 3DC disease control rating, HV activity at 100 ppm / PUCCRT 1DP disease control rating, HV activity at 100 ppm / HV activity at 100 ppm PUCCRT 3DC (disease control rating) / LV activity at 125.1 g/H PUCCRT 1DP (disease control rating) / LV activity at 125.1 g/H PUCCRT 3DC (disease control rating): A: > 80; B: ≤ 80; C: Not Tested; D: No Activity Observed in the Reported Assay; conditions: for PUCCRT 1DP disease control rating, HV activity / PUCCRT 3DC disease control rating, HV activity: HV application at 100 ppm; for PUCCRT 1DP disease control rating, HV activity at 100 ppm / PUCCRT 3DC disease control rating, HV activity at 100 ppm: high volume application
Zymoseptoria tritici = assay: Leaf blotch of wheat (SEPTTR) disease control on wheat seedlings; type: in vivo; set-up: key to SEPTTR 1DP, HV activity at 100 ppm (% control rating) / SEPTTR 3DC, HV activity at 100 ppm (% control rating) / SEPTTR disease control, 1DP / SEPTTR disease control, 3DC / SEPTTR 1DP disease control rating, HV activity / SEPTTR 3DC disease control rating, HV activity / SEPTTR 3DC, LV activity at 125.1 g/H (% Control rating) / SEPTTR 1DP, LV activity at 125.1 g/H (% Control rating) / SEPTTR 1DP disease control rating, LV activity at 125.1 g/H / SEPTTR 3DC disease control rating, LV activity at 125.1 g/H / SEPTTR 3DC disease control rating, HV activity at 100 ppm / SEPTTR 1DP disease control rating, HV activity at 100 ppm / HV activity at 100 ppm SEPTTR 3DC (disease control rating) / HV activity at 100 ppm SEPTTR 1DP (disease control rating) / LV activity at 125.1 g/H SEPTTR 1DP (disease control rating) / LV activity at 125.1 g/H SEPTTR 3DC (disease control rating): A: > 80; B: ≤ 80; C: Not Tested; D: No Activity Observed in the Reported Assay; conditions: for SEPTTR 1DP disease control rating, HV activity / SEPTTR 3DC disease control rating, HV activity: HV application at 100 ppm; for SEPTTR 1DP disease control rating, HV activity at 100 ppm / SEPTTR 3DC disease control rating, HV activity at 100 ppm: high volume application
[1] = 1 Day Protectant, wheat brown rust
[2] = 3 Day Curative, wheat brown rust
[3] = 1 Day Protectant, wheat leaf blotch
[4] = 3 Day Curative, wheat leaf blotch
[5] = low volume application, 125.1 g/H, 1 day protectant
[6] = low volume application, 125.1 g/H, 3 day curative

## COc1ccnc(C(=O)N[C@@H](C)C(=O)O[C@@H](C)[C@H](Oc2ccccc2)C2CCCC2)c1O [Cmpd 356]
Puccinia triticina; [1]
  PUCCRT 1DP disease control rating, HV activity: A (> 80)
Puccinia triticina; [2]
  PUCCRT 3DC disease control rating, HV activity: A (> 80)
Zymoseptoria tritici; [3]
  SEPTTR 1DP disease control rating, HV activity: A (> 80)
Zymoseptoria tritici; [4]
  SEPTTR 3DC disease control rating, HV activity: B (≤ 80)

## CCC(CC)[C@H](Oc1cc(F)cc(Cl)c1)[C@H](C)OC(=O)[C@H](C)NC(=O)c1nccc(OC)c1OCOC(C)=O [Cmpd 672]
Puccinia triticina; [5]
  PUCCRT 1DP disease control rating, LV activity at 125.1 g/H: A (> 80)
Puccinia triticina; [6]
  PUCCRT 3DC disease control rating, LV activity at 125.1 g/H: B (≤ 80)
Zymoseptoria tritici; [5]
  SEPTTR 1DP disease control rating, LV activity at 125.1 g/H: A (> 80)
Zymoseptoria tritici; [6]
  SEPTTR 3DC disease control rating, LV activity at 125.1 g/H: B (≤ 80)

## CCC[C@@H](Oc1ccc(C)cc1)[C@H](C)OC(=O)[C@H](C)NC(=O)c1nccc(OC)c1O [Cmpd 1012]
Puccinia triticina; 1 day protectant
  PUCCRT 1DP disease control rating, HV activity at 100 ppm: A (> 80)
Puccinia triticina; 3 day curative
  PUCCRT 3DC disease control rating, HV activity at 100 ppm: A (> 80)
Zymoseptoria tritici; 1 day protectant
  SEPTTR 1DP disease control rating, HV activity at 100 ppm: B (≤ 80)
Zymoseptoria tritici; 3 day curative
  SEPTTR 3DC disease control rating, HV activity at 100 ppm: B (≤ 80)

## C=CCC(Oc1ccc(Cl)cc1Cl)C(C)OC(=O)C(C)NC(=O)c1nccc(OC)c1O (stereo not drawn) [Cmpd 439]
Puccinia triticina; [1]
  PUCCRT 1DP disease control rating, HV activity: A (> 80)
Puccinia triticina; [2]
  PUCCRT 3DC disease control rating, HV activity: A (> 80)
Zymoseptoria tritici; [3]
  SEPTTR 1DP disease control rating, HV activity: B (≤ 80)
Zymoseptoria tritici; [4]
  SEPTTR 3DC disease control rating, HV activity: D

## CCC(Cc1ccccc1)C(OCC(C)C)C(C)OC(=O)C(C)NC(=O)c1nccc(OC)c1OCOC(C)=O (stereo not drawn) [Cmpd 454]
Puccinia triticina; [1]
  PUCCRT 1DP disease control rating, HV activity: A (> 80)
Puccinia triticina; [2]
  PUCCRT 3DC disease control rating, HV activity: A (> 80)
Zymoseptoria tritici; [3]
  SEPTTR 1DP disease control rating, HV activity: A (> 80)
Zymoseptoria tritici; [4]
  SEPTTR 3DC disease control rating, HV activity: A (> 80)

## COc1ccnc(C(=O)NC(C)C(=O)OC(C)C(OCC(C)C)c2ccccc2)c1O (stereo not drawn) [Cmpd 820]
Puccinia triticina; 1 day protectant
  PUCCRT 1DP disease control rating, HV activity at 100 ppm: A (> 80)
Puccinia triticina; 3 day curative
  PUCCRT 3DC disease control rating, HV activity at 100 ppm: A (> 80)
Zymoseptoria tritici; 1 day protectant
  SEPTTR 1DP disease control rating, HV activity at 100 ppm: A (> 80)
Zymoseptoria tritici; 3 day curative
  SEPTTR 3DC disease control rating, HV activity at 100 ppm: A (> 80)

## CCC(CC)[C@@H](Oc1ccc(Cl)cc1)[C@H](C)OC(=O)[C@@H](NC(=O)c1nccc(OC)c1O)C(C)C [Cmpd 407]
Puccinia triticina; [1]
  PUCCRT 1DP disease control rating, HV activity: B (≤ 80)
Puccinia triticina; [2]
  PUCCRT 3DC disease control rating, HV activity: B (≤ 80)
Zymoseptoria tritici; [3]
  SEPTTR 1DP disease control rating, HV activity: B (≤ 80)
Zymoseptoria tritici; [4]
  SEPTTR 3DC disease control rating, HV activity: D

## C=CC(OCCC)C(Oc1ccccc1)C(C)OC(=O)C(C)NC(=O)c1nccc(OC)c1OC(C)=O (stereo not drawn) [Cmpd 456]
Puccinia triticina; [1]
  PUCCRT 1DP disease control rating, HV activity: A (> 80)
Puccinia triticina; [2]
  PUCCRT 3DC disease control rating, HV activity: A (> 80)
Puccinia triticina; Low volume application at 125.1 g/H, 1 Day Protectant, wheat brown rust
  PUCCRT 1DP disease control rating, LV activity: A (> 80)
Puccinia triticina; Low volume application at 125.1 g/H, 3 Day Curative, wheat brown rust
  PUCCRT 3DC disease control rating, LV activity: A (> 80)
Zymoseptoria tritici; [3]
  SEPTTR 1DP disease control rating, HV activity: A (> 80)
Zymoseptoria tritici; [4]
  SEPTTR 3DC disease control rating, HV activity: A (> 80)
Zymoseptoria tritici; Low volume application at 125.1 g/H, 1 Day Protectant, wheat leaf blotch
  SEPTTR 1DP disease control rating, LV activity: A (> 80)
Zymoseptoria tritici; Low volume application at 125.1 g/H, 3 Day Curative, wheat leaf blotch
  SEPTTR 3DC disease control rating, LV activity: A (> 80)

## COc1ccnc(C(=O)NC(C)C(=O)OC(C(C)C)C(Oc2ccccc2)C(C)C)c1OCOC(C)=O (stereo not drawn) [Cmpd 1088]
Puccinia triticina; low volume application, 125.1 g/H, 1 Day Protectant, wheat brown rust
  LV activity at 125.1 g/H PUCCRT 1DP (disease control rating): B (≤ 80)
Puccinia triticina; low volume application, 125.1 g/H, 3 Day Curative, wheat brown rust
  LV activity at 125.1 g/H PUCCRT 3DC (disease control rating): D
Zymoseptoria tritici; low volume application, 125.1 g/H, 1 Day Protectant, wheat leaf blotch
  LV activity at 125.1 g/H SEPTTR 1DP (disease control rating): D
Zymoseptoria tritici; low volume application, 125.1 g/H, 3 Day Curative, wheat leaf blotch
  LV activity at 125.1 g/H SEPTTR 3DC (disease control rating): D

## CCCOC[C@@H](Oc1ccccc1)[C@H](C)OC(=O)[C@H](CC)NC(=O)c1nccc(OC)c1O [Cmpd 314]
Puccinia triticina; [1]
  PUCCRT 1DP disease control rating, HV activity: A (> 80)
Puccinia triticina; [2]
  PUCCRT 3DC disease control rating, HV activity: B (≤ 80)
Zymoseptoria tritici; [3]
  SEPTTR 1DP disease control rating, HV activity: B (≤ 80)
Zymoseptoria tritici; [4]
  SEPTTR 3DC disease control rating, HV activity: D

## COc1ccnc(C(=O)N[C@@H](C)C(=O)O[C@@H](C)[C@H](OCC2CC2)C2CCCC2)c1O [Cmpd 845, (S)-(1R,2S)-1-cyclopentyl-1-(cyclopropyl-methoxy)propan-2-yl-2-(3-hydroxy-4-methoxypicolinamido)propanoate]
Puccinia triticina; 1 day protectant
  PUCCRT 1DP disease control rating, HV activity at 100 ppm: A (> 80)
Puccinia triticina; 3 day curative
  PUCCRT 3DC disease control rating, HV activity at 100 ppm: A (> 80)
Zymoseptoria tritici; 1 day protectant
  SEPTTR 1DP disease control rating, HV activity at 100 ppm: B (≤ 80)
Zymoseptoria tritici; 3 day curative
  SEPTTR 3DC disease control rating, HV activity at 100 ppm: B (≤ 80)
